# Assay results reported in patent US9353067B2, “Heterocyclic compounds and uses thereof in the treatment of sexual disorders” (ATIR Holding S.A., priority 2011, dated 2016).
# Columns and labels:
# PARP-1 = PARP-1 (Homo sapiens (Human), UniProt P09874); test: Universal Chemiluminescent PARP Assay; format: biochemical; conditions: average results from two assays
# Experimental: In addition, R-55 and its hydrochloride salt were assayed for PARP (poly(ADP-ribose)polymerase) inhibitory activity, as some quinazolinone derivatives, particularly derivatives comprising quinazolinone linked via a three-carbon moiety to substituted pyridinyl and piperazinyl moieties, have been identified as potent PARP inhibitors [U.S. Patent Application Publication No. 2004/0077667; Iwashita et al., FEBS Lett 579:1389-1393(2005); Hattori et al., J Med Chem 47:4151-4154(2004)]. PARP plays a natural role in repair of DNA damage, and inhibition of PARP may lead to undesirable side effects in any treatment of a sexual disorder.
# Inhibition of PARP-1 was assayed using a Universal Chemiluminescent PARP Assay (Trevigen, Inc.).
# The tested compounds were diluted from 2.1 mg of powder in 25 μl of DMSO. The tested compounds were diluted to 100 μM in 1% DMSO/99% ethanol. 3-Aminobenzamide (3-AB), a commercially available weak PARP inhibitor, was used as a positive control. The activity of PARP was quantified as relative light units (RLU). Each of the tested compounds was assayed twice.
# In Assay 1, the 100 μM stock solution was diluted to 40 μM in 1×PARP buffer. The compounds were then serially diluted down to 0.4 μM. Each tested compound was
# further diluted 1:4 during the assay, so the final concentrations ranged from 10 μM to 0.1 μM.
# In Assay 2, the 100 μM stock was added to 1×PARP buffer to prepare samples with concentrations ranging from 40 μM to 2 μM. A 10 μM stock solution was added to 1×PARP buffer to prepare samples with concentrations of 1 μM and 0.4 μM. Each tested compound was further diluted 1:4 during the assay, so the final concentrations ranged from 10 μM to 0.1 μM.
# Adrenergic α1 receptor = test: Competitive binding, prazosin radioligand; parameters: species or system Wistar rat
# Experimental: (§1) R-55 (which comprises a 3-hydroxyphenyl moiety) and the structurally related compounds N-108 (2-{[4-(2-ethoxyphenyl)piperazin-1-yl]methyl}quinazolin-4(3H)-one) and B-39 (7-chloro-2-((5,6-dihydro-4-(2-methoxyphenyl)pyridin-1(2H)-yl)methyl)quinazolin-4(3H)-one) were assayed for competitive binding to a variety of receptors, including D4.4 type dopamine receptor, in order to assess their specificity for D4.4 dopamine receptors.
# (§2) The receptors were expressed as human recombinant proteins in CHO cells, except for adrenergic α1 and α2 receptors which were expressed in Wistar rat brain and cerebral cortex cells, respectively, and melanocortin MC4 receptor which was expressed in human recombinant HEK-293 cells. Binding was determined using the following radioligands in the presence of various concentrations of the tested compound:
# 0.25 nM prazosin for adrenergic α1 receptor,
# (§3) The binding assays were performed in accordance with procedures described in the literature (Greengrass & Bremner, 1979; Boyajian & Leslie, 1987; Broadhurst, 1988; Lewis, 2001; Sutton, 1995; Dearry, 1990; Zhou, 1990; Grandy, 1989; Hayes, 1992; Sokoloff, 1990; Van Tol, 1991; Van Tol 1992; Sunahara, 1991; Weinshank, 1991; Schioth, 1996; Schioth 1997; Martin & Humphrey, 1994; May, 2003; Wolf & Schutz, 1997).
# Adrenergic α2 receptor = test: Competitive binding, rauwolscine radioligand; parameters: species or system Wistar rat
# Experimental: as §1, §2
# 0.7 nM rauwolscine for adrenergic α2 receptor,
# as §3
# CRF1 receptor = CRF1 receptor (Homo sapiens (Human), UniProt P34998); test: Competitive binding, (Tyr0)-CRF radioligand
# Chain of CRF1 receptor (P34998 24-415): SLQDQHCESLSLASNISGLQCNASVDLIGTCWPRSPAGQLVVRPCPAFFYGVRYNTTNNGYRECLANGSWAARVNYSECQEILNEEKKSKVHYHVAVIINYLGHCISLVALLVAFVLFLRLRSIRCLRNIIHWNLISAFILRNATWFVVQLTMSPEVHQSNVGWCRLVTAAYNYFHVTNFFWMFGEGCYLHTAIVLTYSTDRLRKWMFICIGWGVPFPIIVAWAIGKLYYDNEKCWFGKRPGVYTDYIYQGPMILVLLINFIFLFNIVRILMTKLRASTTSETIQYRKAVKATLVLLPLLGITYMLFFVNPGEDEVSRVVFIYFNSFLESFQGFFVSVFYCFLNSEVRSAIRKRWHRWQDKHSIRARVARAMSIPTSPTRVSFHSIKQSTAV
# Experimental: as §1, §2
# 0.05 nM)(Tyr^0)-corticotropin releasing factor (CRF) for corticotropin releasing factor CRF1 receptor,
# as §3
# Dopamine D1 receptor = Dopamine D1 receptor (Homo sapiens (Human), UniProt P21728); test: Competitive binding, SCH-23390 radioligand
# Chain of Dopamine D1 receptor (P21728 whole entry): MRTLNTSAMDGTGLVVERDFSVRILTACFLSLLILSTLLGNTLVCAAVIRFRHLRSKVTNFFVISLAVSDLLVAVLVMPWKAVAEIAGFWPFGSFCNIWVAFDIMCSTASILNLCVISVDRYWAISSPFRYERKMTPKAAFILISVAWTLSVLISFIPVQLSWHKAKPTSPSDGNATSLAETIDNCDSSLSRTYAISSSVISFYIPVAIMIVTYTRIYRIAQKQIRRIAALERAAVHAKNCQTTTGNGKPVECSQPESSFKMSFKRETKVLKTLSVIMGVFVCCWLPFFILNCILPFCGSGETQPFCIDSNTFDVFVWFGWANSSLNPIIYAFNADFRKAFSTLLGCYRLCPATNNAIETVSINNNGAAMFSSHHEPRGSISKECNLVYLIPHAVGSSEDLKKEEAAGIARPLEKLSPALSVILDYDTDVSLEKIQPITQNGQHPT
# Experimental: as §1, §2
# (§4) 1.4 nM and 2 nM SCH-23390, respectively, for dopamine D1 and D5 receptors,
# as §3
# Dopamine D5 receptor = Dopamine D5 receptor (Homo sapiens (Human), UniProt P21918); test: Competitive binding, SCH-23390 radioligand
# Chain of Dopamine D5 receptor (P21918 whole entry): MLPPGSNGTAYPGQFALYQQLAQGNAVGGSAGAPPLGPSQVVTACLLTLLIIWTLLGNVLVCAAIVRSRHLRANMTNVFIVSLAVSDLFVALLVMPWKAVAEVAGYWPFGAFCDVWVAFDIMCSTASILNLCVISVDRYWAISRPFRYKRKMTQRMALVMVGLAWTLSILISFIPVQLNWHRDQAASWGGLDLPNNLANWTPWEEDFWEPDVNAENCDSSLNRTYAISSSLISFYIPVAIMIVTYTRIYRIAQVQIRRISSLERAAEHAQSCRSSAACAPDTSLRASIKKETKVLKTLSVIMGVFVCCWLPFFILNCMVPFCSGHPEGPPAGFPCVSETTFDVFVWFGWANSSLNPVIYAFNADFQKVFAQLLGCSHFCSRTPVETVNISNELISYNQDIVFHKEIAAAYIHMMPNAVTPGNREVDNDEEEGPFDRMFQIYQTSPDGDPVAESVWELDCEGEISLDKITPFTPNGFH
# Experimental: as §1, §2, §4, §3
# Dopamine D2S receptor = Dopamine D2S receptor (Homo sapiens (Human), UniProt P14416); test: Competitive binding, spiperone radioligand
# Chain of Dopamine D2S receptor (P14416 other isoform, or with tags, fused parts or gaps): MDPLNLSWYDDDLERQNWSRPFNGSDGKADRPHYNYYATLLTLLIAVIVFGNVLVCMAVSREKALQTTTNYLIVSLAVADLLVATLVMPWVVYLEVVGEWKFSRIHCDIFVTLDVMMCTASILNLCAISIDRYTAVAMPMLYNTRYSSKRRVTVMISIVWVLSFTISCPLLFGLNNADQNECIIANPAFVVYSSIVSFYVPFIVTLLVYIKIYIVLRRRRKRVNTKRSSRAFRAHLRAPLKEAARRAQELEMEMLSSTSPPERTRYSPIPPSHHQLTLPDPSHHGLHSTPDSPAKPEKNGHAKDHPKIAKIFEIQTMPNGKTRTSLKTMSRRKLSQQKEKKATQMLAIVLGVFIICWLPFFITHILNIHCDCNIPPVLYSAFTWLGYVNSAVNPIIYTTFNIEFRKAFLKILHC
# Experimental: as §1, §2
# (§5) 0.16 nM, 0.7 nM and 1.2 nM spiperone, respectively, for dopamine D2S, D3 and D4.4 receptors,
# as §3
# Dopamine D3 receptor = Dopamine D3 receptor (Homo sapiens (Human), UniProt P35462); test: Competitive binding, spiperone radioligand
# Chain of Dopamine D3 receptor (P35462 whole entry): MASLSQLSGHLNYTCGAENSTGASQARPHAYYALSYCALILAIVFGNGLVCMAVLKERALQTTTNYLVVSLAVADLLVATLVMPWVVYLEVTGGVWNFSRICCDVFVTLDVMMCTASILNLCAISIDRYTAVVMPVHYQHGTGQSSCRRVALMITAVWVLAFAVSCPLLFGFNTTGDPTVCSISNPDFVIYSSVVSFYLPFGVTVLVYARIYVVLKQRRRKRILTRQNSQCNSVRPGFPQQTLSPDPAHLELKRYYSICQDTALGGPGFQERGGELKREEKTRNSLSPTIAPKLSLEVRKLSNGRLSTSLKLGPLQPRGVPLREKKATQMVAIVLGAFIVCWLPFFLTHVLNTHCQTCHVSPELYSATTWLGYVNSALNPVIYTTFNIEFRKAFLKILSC
# Experimental: as §1, §2, §5, §3
# Dopamine D4.4 receptor = Dopamine D4.4 receptor (Homo sapiens (Human), UniProt P21917); test: Competitive binding, spiperone radioligand
# Chain of Dopamine D4.4 receptor (P21917 whole entry): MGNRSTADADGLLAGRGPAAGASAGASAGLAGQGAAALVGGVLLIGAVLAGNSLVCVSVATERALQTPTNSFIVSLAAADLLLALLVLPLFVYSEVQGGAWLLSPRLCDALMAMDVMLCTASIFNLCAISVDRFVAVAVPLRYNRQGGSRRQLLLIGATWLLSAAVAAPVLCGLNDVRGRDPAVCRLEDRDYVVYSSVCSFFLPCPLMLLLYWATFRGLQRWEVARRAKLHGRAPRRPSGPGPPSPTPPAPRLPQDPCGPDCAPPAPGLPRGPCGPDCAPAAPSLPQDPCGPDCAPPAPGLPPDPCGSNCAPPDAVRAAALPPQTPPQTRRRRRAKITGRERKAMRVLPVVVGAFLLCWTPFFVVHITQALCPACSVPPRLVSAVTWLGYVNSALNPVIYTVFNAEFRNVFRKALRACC
# Experimental: as §1, §2, §5, §3
# [1] = biological target: Melanocortin MC4 receptor (Homo sapiens (Human), UniProt P32245); test: Competitive binding, NDP-α-MSH radioligand
# Chain of Melanocortin MC4 receptor (P32245 whole entry): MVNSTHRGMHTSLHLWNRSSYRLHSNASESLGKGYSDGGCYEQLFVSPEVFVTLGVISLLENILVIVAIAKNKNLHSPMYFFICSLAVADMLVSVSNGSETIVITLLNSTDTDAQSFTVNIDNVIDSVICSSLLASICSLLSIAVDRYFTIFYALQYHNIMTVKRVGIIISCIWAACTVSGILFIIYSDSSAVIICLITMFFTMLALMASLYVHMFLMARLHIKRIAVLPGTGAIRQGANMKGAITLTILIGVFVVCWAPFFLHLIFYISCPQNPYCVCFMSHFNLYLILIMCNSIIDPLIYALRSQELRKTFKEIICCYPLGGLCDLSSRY
# Experimental: as §1, §2
# 0.02 nM NDP-α-MSH for melanocortin MC4 receptor,
# as §3
# [2] = biological target: Serotonin 5-HT1A receptor (Homo sapiens (Human), UniProt P08908); test: Competitive binding, 8-OH-DPAT radioligand
# Chain of Serotonin 5-HT1A receptor (P08908 whole entry): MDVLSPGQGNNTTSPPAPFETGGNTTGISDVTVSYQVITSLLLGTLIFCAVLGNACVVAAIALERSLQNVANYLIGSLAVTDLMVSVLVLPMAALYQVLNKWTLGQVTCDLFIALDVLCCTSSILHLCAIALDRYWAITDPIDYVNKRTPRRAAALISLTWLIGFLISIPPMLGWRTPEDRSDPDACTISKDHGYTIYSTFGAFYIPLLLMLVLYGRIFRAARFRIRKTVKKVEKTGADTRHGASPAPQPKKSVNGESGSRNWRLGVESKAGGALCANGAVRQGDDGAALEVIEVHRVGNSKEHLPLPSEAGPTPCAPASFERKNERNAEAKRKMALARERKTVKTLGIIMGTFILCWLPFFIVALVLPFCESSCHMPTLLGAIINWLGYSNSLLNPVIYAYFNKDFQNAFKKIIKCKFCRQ
# Experimental: as §1, §2
# 1.5 nM 8-OH-DPAT for serotonin 5-HT1A receptor, and
# as §3
# [3] = biological target: Serotonin 5-HT2C receptor (Homo sapiens (Human), UniProt P28335); test: Competitive binding, mesulergine radioligand
# Chain of Serotonin 5-HT2C receptor (P28335 33-458): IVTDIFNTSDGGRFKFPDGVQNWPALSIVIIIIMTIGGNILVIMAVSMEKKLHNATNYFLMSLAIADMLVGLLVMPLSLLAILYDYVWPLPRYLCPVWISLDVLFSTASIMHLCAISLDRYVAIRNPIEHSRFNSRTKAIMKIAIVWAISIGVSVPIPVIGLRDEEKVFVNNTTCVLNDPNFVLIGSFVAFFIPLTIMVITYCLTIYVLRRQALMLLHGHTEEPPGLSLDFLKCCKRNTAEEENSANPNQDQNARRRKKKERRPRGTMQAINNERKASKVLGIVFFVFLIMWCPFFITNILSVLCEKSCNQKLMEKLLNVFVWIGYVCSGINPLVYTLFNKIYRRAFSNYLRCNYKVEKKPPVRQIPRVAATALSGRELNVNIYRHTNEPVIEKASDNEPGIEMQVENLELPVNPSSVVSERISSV
# Experimental: as §1, §2
# 1 nM mesulergine for serotonin 5-HT2C receptor.
# as §3
# [4] = Hydrolysis (half-life) of esterified derivatives of R-55 in human plasma; format: in vitro ADME; conditions: for % L-207 (hydrolysis of L-207 to R-55): human plasma
# Experimental: (§6) 50 μl of dimethyl sulfoxide containing 0.2 mg of the tested derivative was added to 1 ml of fresh plasma (human or rat) in a sterile Eppendorf tube. The samples were then incubated at 37° C., and 100 μl samples were removed at various times, up to 120 minutes after incubation. The plasma samples were immediately added to 1 ml acetonitrile. After vigorous mixing by vortex, the samples were centrifuged for 10 minutes at 2000 rotations per minute at 4° C. 0.95 ml of the supernatant was then removed and stored at −20° C. until determination of the concentrations of R-55 and its esterified derivative by LCMS analysis.
# [5] = Hydrolysis (half-life) of esterified derivatives of R-55 in rat plasma; format: in vitro ADME; conditions: 37° C.; for % L-207 (hydrolysis of L-207 to R-55): rat plasma
# Experimental: as §6
# [6] = Solubility of L-207 in solvents; format: physicochemical
# From the text: The compound was soluble in dimethylformamide, dimethyl sulfoxide, tetrahydrofuran, chloroform, dichloromethane, and HCl in diethyl ether, and non-soluble in water.
# [7] = biological target: D4.4 type dopamine receptor (Homo sapiens (Human), UniProt P21917); test: Competitive binding to D4.4 receptor ([3H]-YM-09151-2); conditions: human recombinant receptor in CHO cells, [3H]-YM-09151-2 0.3 nM
# Chain of D4.4 type dopamine receptor (P21917 whole entry): as the sequence (P21917 whole entry) above
# Experimental: R-55 (which comprises a 3-hydroxyphenyl moiety) and its isomers L-221 (comprising a 4-hydroxyphenyl moiety) and L-238 (comprising a 2-hydroxyphenyl moiety) were assayed for competitive binding to D2 SHORT and D4.4 type dopamine receptors, in order to assess their efficacy for treating sexual disorders. Both receptor types are expressed as human recombinant proteins in CHO cells, as described, for example, in Jarvis et al. (1973); Van Tol et al. (1991) and Van Tol et al. (1992).
# Determination of binding to D4.4 receptor was performed using [^3H]-YM-09151-2 (70-87 Ci/mmol, 0.3 nM), as a radioligand, in the presence of various concentrations of the tested compound. Reactions were carried out in 50 mM TRIS-HCl (pH 7.4) containing 5 mM MgCl2, 5 mM EDTA, 5 mM KCl and 1.5 mM CaCl2, for 60 minutes at 22° C. The reaction was terminated by rapid vacuum filtration onto glass fiber filters. Radioactivity trapped onto the filters was determined (counted) and compared to control values in order to accurately evaluate any interaction of the tested compound(s) with the cloned dopamine D4.4 binding site.
# Chain of PARP-1 (P09874 whole entry): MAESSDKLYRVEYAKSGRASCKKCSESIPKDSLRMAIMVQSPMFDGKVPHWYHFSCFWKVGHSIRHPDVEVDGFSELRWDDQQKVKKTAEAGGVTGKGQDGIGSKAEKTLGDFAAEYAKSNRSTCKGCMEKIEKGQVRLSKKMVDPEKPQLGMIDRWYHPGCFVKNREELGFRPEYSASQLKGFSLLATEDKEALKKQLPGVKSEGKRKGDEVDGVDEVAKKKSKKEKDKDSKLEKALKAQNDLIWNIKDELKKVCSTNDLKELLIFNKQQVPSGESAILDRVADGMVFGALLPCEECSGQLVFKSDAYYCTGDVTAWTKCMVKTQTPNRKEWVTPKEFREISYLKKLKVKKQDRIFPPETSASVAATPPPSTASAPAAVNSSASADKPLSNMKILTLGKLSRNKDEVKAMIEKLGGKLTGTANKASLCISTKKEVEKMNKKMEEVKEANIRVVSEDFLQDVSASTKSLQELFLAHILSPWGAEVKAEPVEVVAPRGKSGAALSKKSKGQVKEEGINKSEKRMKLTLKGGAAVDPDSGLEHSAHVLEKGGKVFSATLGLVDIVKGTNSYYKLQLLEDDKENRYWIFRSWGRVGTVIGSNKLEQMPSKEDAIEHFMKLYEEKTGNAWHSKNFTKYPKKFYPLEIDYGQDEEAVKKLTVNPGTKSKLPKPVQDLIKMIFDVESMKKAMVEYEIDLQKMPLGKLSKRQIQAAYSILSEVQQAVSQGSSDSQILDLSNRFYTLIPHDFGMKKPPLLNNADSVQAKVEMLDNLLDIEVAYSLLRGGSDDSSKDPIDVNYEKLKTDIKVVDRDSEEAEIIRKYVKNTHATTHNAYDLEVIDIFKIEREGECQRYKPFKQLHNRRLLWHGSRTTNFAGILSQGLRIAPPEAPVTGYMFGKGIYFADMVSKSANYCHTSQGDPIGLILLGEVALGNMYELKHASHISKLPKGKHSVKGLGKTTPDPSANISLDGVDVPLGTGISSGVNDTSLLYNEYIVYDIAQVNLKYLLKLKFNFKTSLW
structure (smiles),measurement,setting,value
"NC(=O)c1cccc(N)c1 [Compound 3-AB, 3-Aminobenzamide, reference compound]",inhibition at 5 µM,PARP-1; 5 μM,21%
same,inhibition at 10 µM,PARP-1; 10 μM,40%
"COc1ccccc1C1=CCN(Cc2nc3cc(Cl)ccc3c(=O)[nH]2)CC1 [Compound B-39, 7-chloro-2-((5,6-dihydro-4-(2-methoxyphenyl)pyridin-1(2H)-yl)methyl)quinazolin-4(3H)-one, reference compound]",Competitive binding (%) at 5 μM of tested compound,Adrenergic α1 receptor,54%
same,Competitive binding (%) at 5 μM of tested compound,Adrenergic α2 receptor,72%
same,Competitive binding (%) at 5 μM of tested compound,CRF1 receptor,−5%
same,Competitive binding (%) at 5 μM of tested compound,Dopamine D1 receptor,4%
same,Competitive binding (%) at 5 μM of tested compound,Dopamine D5 receptor,7%
same,Competitive binding (%) at 5 μM of tested compound,Dopamine D2S receptor,46%
same,Competitive binding (%) at 5 μM of tested compound,Dopamine D3 receptor,32%
same,Competitive binding (%) at 5 μM of tested compound,"Dopamine D4.4 receptor; Dopamine D4.4 receptor, 5 μM",57%
same,binding affinity to the D4.4 receptor (in words),Dopamine D4.4 receptor; Table 8,high binding affinity
same,Competitive binding (%) at 5 μM of tested compound,[1],5%
same,Competitive binding (%) at 5 μM of tested compound,[2],89%
same,Competitive binding (%) at 5 μM of tested compound,[3],56%
O=C(Oc1cccc(N2CCN(Cc3nc4ccccc4c(=O)[nH]3)CC2)c1)c1ccccc1 [Compound L-207],half-life at 0.19 mg/ml,"[4]; fresh human plasma, hydrolysis of ester to R-55, human plasma, 37° C., read-out: T1/2 in human plasma",134 min
same,rate of hydrolysis (in words),"[4]; human and rat plasma, comparison of acyl moieties",relatively rapid hydrolysis
same,% L-207 (hydrolysis of L-207 to R-55),"[4]; 37° C., 10 minutes",97.54%
same,% L-207 (hydrolysis of L-207 to R-55),"[4]; 37° C., 30 minutes",89.21%
same,% L-207 (hydrolysis of L-207 to R-55),"[4]; 37° C., 60 minutes",77.11%
same,% L-207 (hydrolysis of L-207 to R-55),"[4]; 37° C., 90 minutes",64.67%
same,% L-207 (hydrolysis of L-207 to R-55),"[4]; 37° C., 120 minutes",52.91%
same,half-life at 0.19 mg/ml,"[5]; fresh rat plasma, hydrolysis of ester to R-55, rat plasma, read-out: T1/2 in rat plasma",29 min
same,% L-207 (hydrolysis of L-207 to R-55),[5]; 0 minutes,99.49%
same,% L-207 (hydrolysis of L-207 to R-55),[5]; 15 minutes,74.08%
same,% L-207 (hydrolysis of L-207 to R-55),[5]; 30 minutes,47.73%
same,% L-207 (hydrolysis of L-207 to R-55),[5]; 60 minutes,6.61%
same,% L-207 (hydrolysis of L-207 to R-55),[5]; 90 minutes,0.76%
same,% L-207 (hydrolysis of L-207 to R-55),[5]; 120 minutes,0.41%
same,solubility in organic solvents,"[6]; dimethylformamide, dimethyl sulfoxide, tetrahydrofuran, chloroform, dichloromethane, HCl in diethyl ether",soluble
same,solubility in water,[6]; water,non-soluble
"O=c1[nH]c(CN2CCN(c3ccc(O)cc3)CC2)nc2ccccc12 [Compound L-221, 2-((4-(4-hydroxyphenyl)piperazin-1-yl)methyl)quinazolin-4-one]",IC50,[7],~30 µM
